This note sets out measurements from patent US7977352B2, “Triazolopyridine compounds useful for the treatment of degenerative and inflammatory diseases” (Galapagos NV, priority 2006, dated 2011).

The subject of assay [1] is MMP1 expression by activated synovial fibroblasts (RASFs). The assay can be described thus: MMP assay: MMP1 expression by RASFs triggered with TNF-α (MMP1 ELISA). The format is cell-based. Conditions: Fibroblast, 48 h, TNF-α trigger 10 ng/mL, semi-quantitative score, read-out: REDUCTION MMP1/TNFa. As to the method:
A 384-well format ELISA for measurement of MMP1 is developed. Various primary antibodies are tested, as well as various ELISA protocols. The following protocol is developed and validated to measure MMP1 levels in SF supernatant in 384 well plates: white Lumitrac 600 384 well plates (Greiner) are coated with 2 μg/mL anti-MMP1 antibody MAB1346 (Chemicon). The antibody is diluted in buffer 40 (1.21 g Tris base (Sigma), 0.58 g NaCl (Calbiochem) and 5 mL 10% NaN3 (Sigma) in 1 L milliQ water and adjusted to pH 8.5). After overnight incubation at 4° C., plates are washed with PBS (80 g NaCl, 2 g KCl (Sigma), 11.5 g Na2HPO4.7H2O and 2 g KH2PO4 in 10 L milliQ; pH 7.4) and blocked with 100 μL/well Casein buffer (2% Casein (VWR International) in PBS). Next day, casein buffer is removed from ELISA plates and replaced by 50 μL/well EC buffer (4 g casein, 2.13 g Na2HPO4 (Sigma), 2 g bovine albumin (Sigma), 0.69 g NaH2PO4.H2O (Sigma), 0.5 g CHAPS (Roche), 23.3 g NaCl, 4 mL 0.5 M EDTA pH 8 (Invitrogen), 5 mL 10% NaN3 in 1 L milliQ and adjusted to pH 7.0). 0.25 mM DTT (Sigma) is added to the thawed sample plates. After removal of the EC buffer, 20 μL of sample is transferred to the ELISA plates. After overnight incubation at 4° C. plates are washed twice with PBS and once with PBST (PBS with 0.05% Tween-20 (Sigma)) and incubated with 35 μL/well biotinylated anti-MMP1 antibody solution (R&D). This secondary antibody is diluted in buffer C (0.82 g NaH2PO4.H2O, 4.82 g Na2HPO4, 46.6 g NaCl, 20 g bovine albumin and 4 mL 0.5M EDTA pH 8 in 2 L milliQ and adjusted to pH 7.0) at a concentration of 5 μg/mL. After 2 h of incubation at RT, plates are washed as described above and incubated with 50 μL/well streptavidin-HRP conjugate (Biosource). Streptavidin-HRP conjugate is diluted in buffer C at a concentration of 0.25 μg/mL. After 45 min, plates are washed as described above and incubated for 5 min with 50 μL/well BM Chem ELISA Substrate (Roche). Readout is performed on the Luminoscan Ascent Luminometer (Labsystems) with an integration time of 200 msec or with an Envision reader (Perkin Elmer).
SFs were acquired at passage 1 from a commercial supplier (Cell applications, Inc.). SFs are cultured in DMEM supplemented with 10% heat-inactivated FBS, 1× penicillin/streptomycin (Invitrogen) at 37° C., 10% CO2 until passage 6. Aliquots of the cells are frozen and cryopreserved in liquid nitrogen. Starting from a cryopreserved aliquot, cells are further expanded by sub-culturing cells at 1/3 ratio every week. Cells between passage 10 and 12 are routinely used in compound testing according to following protocol.
Starting from the compound master stocks (all at 10 mM concentration in 100% DMSO) a 3-fold serial dilution is made in 96-well plates in 100% DMSO. Then, plates are further diluted 45-fold in M199 medium supplemented with 1% heat-inactivated FBS to obtain a intermediate work stock.
At day 1, RASFs are seeded in 96 well plates (flat bottom, tissue culture treated, Greiner) at a density of 3000 cells/well in complete synovial growth medium (Cell Applications). Day 5, the medium is completely removed from the cells, and replaced by 81 μL of M199 medium supplemented with 1% heat-inactivated FBS followed by addition of 10 μL compound out of the intermediate work stock. After an incubation period of 90 minutes, which allows the compounds to equilibrate and enter the cells, cells are stimulated with either TNF-α or ‘complex trigger’. TNF-α trigger is added in a volume of […] to obtain final concentration of 10 ng/mL. For that, TNF-α stock (PeproTech) at 10 μg/mL was diluted to 100 ng/mL TNF-a in M199 medium supplemented with 1% FBS. ‘Complex trigger’ mix is added in a volume of 20 μL to obtain a final concentration of 12.5%. For that, ‘complex trigger’ mix, is diluted to 80% with M199 medium supplemented with 1% FBS. […]
A general note: In an ELISA, binding on a coated surface is turned into a signal by an enzyme label.

For assay [2], the target named is T1, TAK1-TAB1 fusion protein (Homo sapiens, UniProt O43318).
T1 construct: purchased Upstate 14-600
T1 sequence (O43318 with tags, fused parts or gaps limits assumed): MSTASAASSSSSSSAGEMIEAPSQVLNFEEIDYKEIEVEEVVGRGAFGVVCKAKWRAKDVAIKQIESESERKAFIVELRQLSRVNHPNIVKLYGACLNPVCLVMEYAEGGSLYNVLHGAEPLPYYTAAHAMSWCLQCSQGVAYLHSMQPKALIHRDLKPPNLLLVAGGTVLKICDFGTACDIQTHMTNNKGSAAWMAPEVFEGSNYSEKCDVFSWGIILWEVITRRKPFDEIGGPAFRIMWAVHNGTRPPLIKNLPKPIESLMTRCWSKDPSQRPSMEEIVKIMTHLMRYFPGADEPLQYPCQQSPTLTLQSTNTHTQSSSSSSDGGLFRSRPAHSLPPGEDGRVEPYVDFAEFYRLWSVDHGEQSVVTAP
The assay can be described thus: In vitro TAK1 kinase assay. The format is biochemical. Conditions: casein substrate, [33P]-γ-ATP, 90 minutes at 30° C., semi-quantitative score, read-out: POTENCY TAK1 (MAP3K7). As to the method: For assessing TAK1 inhibition, active TAK1-TAB1 fusion protein was used from Upstate (Cat. No, 14-600). Kinase reactions are set up in 96-well polypropylene plates in 25 μL containing 0.5 mU TAK1-TAB1 fusion protein, 5mM ATP, 0.01 μCi/μL [^33P]-γ-ATP, 0.1 mg/mL casein substrate in 1× reaction buffer containing 10 mM MOPS pH 7.0, 1 mM EDTA.
Starting from the compound master stocks (all at 10 mM concentration in 100% DMSO) a 3-fold serial dilution is made in 96-well plates in 100% DMSO. Plates are further diluted […] in H2O containing 3.5% DMSO, to obtain an intermediate work stock with compounds at 5× the final assay concentration in 5% DMSO.
5 μL of the intermediate stock is transferred into V-bottom 96 well polypropylene plates and 11 μL of Enzyme mix is added. Enzyme mix is made by combining 5 μL 5× reaction buffer ([…] pH 7.0, 1 mM EDTA), 5 μL casein (Sigma) diluted in H20 to 0.5 mg/mL and 1 μL of TAK1-TAB1 fusion protein that was prediluted to 0.5 mU/μL in 1× enzyme dilution buffer (20 mM MOPS pH 7.0, 0.1 mM EDTA, 0.01% Brij-35, 5% glycerol, 1 mM DTT, 1 mg/ml BSA).
The reactions are started by the addition of 9 μL of mixture containing ATP (20.83 uM) and [^33P]-γ-ATP (0.028 μCi/μL).
The assay is stopped 90 minutes after incubation at 30° C. by the addition of 25 μL phosphoric acid (150 mM). The label incorporated into the casein substrate is separated from labeled unincorporated ATP by filtration onto 96-well filter plates using a harvester device. After 6 washes with 75 mM phosphoric acid, the bottom of the filter plates are sealed, and incorporated label is quantified after addition of 40 μL scintillation fluid using TopCount.

Assay [3] relates to MMP1 expression by activated SFs. The assay can be described thus: MMP assay proof of principle: MMP1 produced by complex trigger activated SFs. In kind it is cell-based. Conditions: Homo sapiens, supernatant of THP-1 cells treated with TNF-a (50% diluted), 48 hrs, FIG. 3, read-out: IC50 value, reduction of MMP1 expression by SFs. As to the method: A 384-well format ELISA for measurement of MMP1 is developed. Various primary antibodies are tested, as well as various ELISA protocols. The following protocol is developed and validated to measure MMP1 levels in SF supernatant in 384 well plates: white Lumitrac 600 384 well plates (Greiner) are coated with 2 μg/mL anti-MMP1 antibody MAB1346 (Chemicon). The antibody is diluted in buffer 40 (1.21 g Tris base (Sigma), 0.58 g NaCl (Calbiochem) and 5 mL 10% NaN3 (Sigma) in 1 L milliQ water and adjusted to pH 8.5). After overnight incubation at 4° C., plates are washed with PBS (80 g NaCl, 2 g KCl (Sigma), 11.5 g Na2HPO4.7H2O and 2 g KH2PO4 in 10 L milliQ; pH 7.4) and blocked with 100 μL/well Casein buffer (2% Casein (VWR International) in PBS). Next day, casein buffer is removed from ELISA plates and replaced by 50 μL/well EC buffer (4 g casein, 2.13 g Na2HPO4 (Sigma), 2 g bovine albumin (Sigma), 0.69 g NaH2PO4.H2O (Sigma), 0.5 g CHAPS (Roche), 23.3 g NaCl, 4 mL 0.5 M EDTA pH 8 (Invitrogen), 5 mL 10% NaN3 in 1 L milliQ and adjusted to pH 7.0). 0.25 mM DTT (Sigma) is added to the thawed sample plates. After removal of the EC buffer, 20 μL of sample is transferred to the ELISA plates. […] Readout is performed on the Luminoscan Ascent Luminometer (Labsystems) with an integration time of 200 msec or with an Envision reader (Perkin Elmer). […]

For the compound `c1cc(-c2ccc(Nc3ccc(N4CCOCC4)cc3)c3ncnn23)c2cc[nH]c2c1` [Example 48, 5-(1H-indol-4-yl)-N-(4-morpholin-4-ylphenyl)[1,2,4]triazolo[1,5-a]pyridin-8-amine], the IC50 was 1 to 5 µM in assay [1] and greater than 10 µM in assay [2]. On the same counts, the results for `CC(C)N1CCN(c2ccc(Nc3ccc(-c4cccc5[nH]ccc45)n4ncnc34)cc2)CC1` [Example 49, 5-(1H-indol-4-yl)-N-[4-(4-isopropylpiperazin-1-yl)phenyl][1,2,4]triazolo[1,5-a]pyridin-8-amine] are greater than 10 µM and 1 to 5 µM. On the same counts, the results for `c1nc2c(Nc3ccc(N4CCOCC4)cc3)ccc(-c3ccc4[nH]ccc4c3)n2n1` [Example 50, 5-(1H-indol-5-yl)-N-(4-morpholin-4-ylphenyl)[1,2,4]triazolo[1,5-a]pyridin-8-amine] are 1 to 5 µM and greater than 10 µM.

For `CC(C)N1CCN(c2ccc(Nc3ccc(-c4ccc5[nH]ccc5c4)n4ncnc34)cc2)CC1` [Example 51, 5-(1H-indol-5-yl)-N-[4-(4-isopropylpiperazin-1-yl)phenyl][1,2,4]triazolo[1,5-a]pyridin-8-amine], the IC50 in assay [1] and in assay [2] was greater than 10 µM each time.

In the case of `c1nc2c(Nc3ccc(N4CCOCC4)cc3)ccc(-c3ccc4cc[nH]c4c3)n2n1` [Example 52, 5-(1H-indol-6-yl)-N-(4-morpholin-4-ylphenyl)[1,2,4]triazolo[1,5-a]pyridin-8-amine], the IC50 in assay [1] and in assay [2] was greater than 10 µM each time. Take `CC(C)N1CCN(c2ccc(Nc3ccc(-c4ccc5cc[nH]c5c4)n4ncnc34)cc2)CC1` [Example 53, 5-(1H-indol-6-yl)-N-[4-(4-isopropylpiperazin-1-yl)phenyl][1,2,4]triazolo[1,5-a]pyridin-8-amine]: the IC50 in assay [1] and in assay [2] was greater than 10 µM throughout. `COc1ncc(-c2ccc(Nc3ccc(N4CCOCC4)cc3)c3ncnn23)c(OC)n1` [Example 54, 5-(2,4-dimethoxypyrimidin-5-yl)-N-(4-morpholin-4-ylphenyl)[1,2,4]triazolo[1,5-a]pyridin-8-amine]: the IC50 in assay [1] and in assay [2] was greater than 10 µM each time.

As to `CC(C)N1CCN(c2ccc(Nc3ccc(-c4c[nH]c(=O)[nH]c4=O)n4ncnc34)cc2)CC1` [Example 55, 5-(8-{[4-(4-isopropylpiperazin-1-yl)phenyl]amino}[1,2,4]triazolo[1,5-a]pyridin-5-yl)pyrimidine-2,4(1H,3H)-dione], the IC50 in assay [1] and in assay [2] was greater than 10 µM in each case.

Regarding `COc1ncc(-c2ccc(Nc3ccc(N4CCN(C(C)C)CC4)cc3)c3ncnn23)c(OC)n1` [Example 56, 5-(2,4-dimethoxypyrimidin-5-yl)-N-[4-(4-isopropylpiperazin-1-yl)phenyl][1,2,4]triazolo[1,5-a]pyridin-8-amine], the IC50 in assay [1] and in assay [2] was greater than 10 µM throughout.

Take `C[C@@H]1CN(c2ccc(Nc3ccc(-c4cc[nH]c(=O)c4)n4ncnc34)cc2)C[C@H](C)N1C` [Example 57, 4-[8-({4-[(3R,5S)-3,4,5-trimethylpiperazin-1-yl]phenyl}amino)[1,2,4]triazolo[1,5-a]pyridin-5-yl]pyridin-2(1H)-one]: the IC50 in assay [1] is 1 to 5 µM; in assay [2] it was less than 0.5 µM. Take `C[C@@H]1C[C@H]2[C@@H]3CCC4=CC(=O)C=C[C@]4(C)[C@@]3(F)[C@@H](O)C[C@]2(C)[C@@]1(O)C(=O)CO` [dexamethasone]: the IC50 in assay [3] is roughly 0.001 µM.
